Data published in US11338025B2, “Vaccine therapy for treatment of endometrial and ovarian cancer” (The Henry M. Jackson Foundation for the Advancement of …, priority 2016, dated 2022).
Each block holds one substance with its values, some of them ahead of it. Ends that are not written are not given here.

How the values were obtained:
[1] = tested on: tumor-associated lymphocyte (TAL); settings: previous studies (Peoples et al. 1998); cited from earlier work
[2] = Local reactions (LR) 48-72 hours after booster; settings: 500 mcg peptide + 250 mcg GM-CSF
Source text: Therefore, to assess the use of the attenuated E39′ peptide as a booster, E39-vaccinated patients described in Example 1 were randomized to receive either E39 or E39′ as a booster to determine the effect on long-term E39-specific immunity. Patients in the VG received six intradermal E39 injections as described in Example 1 as a primary vaccination schedule (PVS). At six months (B1) and at twelve months (B2) after completion of the PVS, patients received either 500 mcg of E39′ and 250 mcg GM-CSF or 500 mcg E39 and 250 mcg of GM-CSF as a booster.
Local reactions (LR) were recorded 48-72 hours after each booster. Immune response was determined by measurement of E39 specific CTL levels using a Dextramer reagents in accordance with the manufacturer's instructions (Immudex Limited, Copenhagen, Denmark) as previously described (e.g., Tario et al. Cytometry B Clin. Cytom. 2015; 88B:6-20; Baba J. Transl Med. 2010; 8:84), at RO (baseline pre-vaccination), RC1 (1 month after completion of PVS), RC6 (6 months after completion of PVS and before booster), RC7 (1 month after booster) and RC12 (6 months after booster and 12 months after completion of PVS).

[3] = Local and systemic toxicity (NCI CTCAE v4.03) of E39+GM-CSF vaccination; type: in vivo, human
Experimental: Standard local and systemic toxicities were collected and graded per the National Cancer Institute Common Terminology Criteria for Adverse Events, v4.03 toxicity scale. For the vaccine series (one vaccine/month for six months), patients were monitored closely for one hour after vaccine inoculation with questioning, serial exams and vital signs every 15 minutes to observe for a hypersensitivity reaction. Systemic toxicity and inoculation site local reactions were also determined after 48-72 hours.

Substance: E41: FRα-derived immunogenic peptide (FRα 245-253) of previous studies (LLSLALMLL; UniProt P15328 245-253, looked up, fragment)
effect on TAL proliferation and anti-tumor function [1]: capable of enhancing tumor-associated lymphocyte (TAL) proliferation and anti-tumor function

average LR ([2]; B1 booster (6 months after PVS)): 79.7±14.0 mm
average LR ([2]; B2 booster (12 months after PVS)): 74.1±11.5 mm
Substance: EIWTFSTKV [E39′, EIWTFSTKV]

Substance: EIWTHSYKV [E39, EIWTHSYKV]
tolerability of the vaccine ([3]; E39+GM-CSF, disease-free endometrial and ovarian cancer patients): well tolerated
Local and systemic toxicities ([3]; in vivo): mild
patients experiencing grade 3 toxicity ([3]; in vivo): 1 patient
